# US8778621B2, “Phosphodiesterase 4D7 as marker for malignant, hormone-sensitive prostate cancer” (Koninklijke Philips N.V., priority 2009, dated 2014)
# pIC50: −log10 of the molar value. Like-named read-outs stand apart in the source and are kept apart here.
# Key:
# [1] = biological target: cAMP phosphodiesterase (PDE4); conditions: cited from earlier work
# [2] = biological target: [3H]-rolipram binding to rat brain; conditions: read-out: IC50 for inhibition of [3H]-rolipram binding to rat brain; cited from earlier work
# [3] = test system: LNCaP prostate cancer cells; experiment: Xcelligence assay, real time electrical impedance measurement of cell growth; assay type: cell-based; conditions: Homo sapiens
# Experimental: The growth data is expressed as a percentage of “untreated” slope value obtained during real time electrical impedance measurements. Measurements were conducted 12 hours after the initial plating down phase of the assay, i.e. 12 hours-60 hours—so as to examine proliferative potential and not morphological change. The cells were assayed without the presence of androgens.
# For the Xcelligence assay LNCaP cells were grown at 37° C., 5% CO2, from a seeding value of 5000 cells. The final plating volume was 200 μl. E-Plate 96 well plates were obtained from Roche (Cat No 05232368001). The growth data were obtained during real time electrical impedance measurements. Measurements were conducted 12 hours after the initial plating down phase of the assay, i.e. 12 hours-60 hours—so as to examine proliferative potential and not morphological change. The cells were assayed without the presence of androgens. The significance of differential growth rates were calculated using T-Test of Triplicate Values only. […] The level of average inhibition of cell proliferation is around 50%, which would lead to an IC50 of the compound of ˜10 μM. Compared to an in vitro IC50 for 50% inhibition of PDE4 in vitro of ˜2 μm, an in vivo IC50 of 10 μM let us conclude that the proliferation inhibition effect is largely due to its PDE4 activity.
# [4] = test system: LNCaP prostate cancer cells; experiment: MTT growth assay, A590 Abs end-point; assay type: cell-based; conditions: Homo sapiens
# Experimental: The growth data is expressed as a percentage of as a percentage of the “untreated” A590 Abs reading after 48 hours. The cells were assayed without the presence of androgens.
# For the MTT growth assay LNCaP cells were grown at 37° C., 5% CO2, from a seeding value of 5000 cells. The final plating volume was 200 μl. The proliferation assay was obtained from Promega (Cat no G3582). The growth data were obtained during A590 Abs measurements. Measurements were conducted 48 hours after the initial plating. The cells were assayed without the presence of androgens. The significance of final A590 readings was calculated using T-Test of Triplicate Values only. […] The level of average inhibition of cell proliferation is around 50%, which would lead to an IC50 of the compound of ˜10 μM. […]
# PDEIB = PDEIB (Homo sapiens, UniProt Q01064); conditions: cited from earlier work
# PDEIIA = PDEIIA (Homo sapiens, UniProt O00408); conditions: cited from earlier work
# PDEIIIB = PDEIIIB (Homo sapiens, UniProt Q13370); conditions: cited from earlier work
# PDEVA = PDEVA (Homo sapiens, UniProt O76074); conditions: cited from earlier work
# PDEVIIB = PDEVIIB (Homo sapiens, UniProt Q9NP56); conditions: cited from earlier work
# PDEVIIIA = PDEVIIIA (Homo sapiens, UniProt O60658); conditions: cited from earlier work
# PDEIXA = PDEIXA (Homo sapiens, UniProt O76083); conditions: cited from earlier work
# PDEXIA = PDEXIA (Homo sapiens, UniProt Q9HCR9); conditions: cited from earlier work
# PDEXA = PDEXA (Homo sapiens, UniProt Q9Y233); conditions: cited from earlier work
# human lung PDE4 = conditions: cited from earlier work
# lung PDE1 = conditions: cited from earlier work
# lung PDE2 = biological target: T1, lung PDE2; conditions: cited from earlier work
# T1 construct: from tissue; host or cells: lung
# heart PDE3 = conditions: cited from earlier work
# platelet PDE-V = biological target: T2, platelet PDE-V (Homo sapiens, UniProt O76074); conditions: cited from earlier work
# T2 construct: from tissue; host or cells: platelets
# [5] = test system: isolated human peripheral blood monocytes, eosinophils and T cells; conditions: cited from earlier work
# [6] = in vivo; cited from earlier work
# [7] = in vivo; cited from earlier work; remark: listed apart in the source
# [8] = PDE4 inhibitors, target not given, read-out: IC 50 (Table of Inhibitors)
# Sequence of PDEIIIB (Q13370 whole entry): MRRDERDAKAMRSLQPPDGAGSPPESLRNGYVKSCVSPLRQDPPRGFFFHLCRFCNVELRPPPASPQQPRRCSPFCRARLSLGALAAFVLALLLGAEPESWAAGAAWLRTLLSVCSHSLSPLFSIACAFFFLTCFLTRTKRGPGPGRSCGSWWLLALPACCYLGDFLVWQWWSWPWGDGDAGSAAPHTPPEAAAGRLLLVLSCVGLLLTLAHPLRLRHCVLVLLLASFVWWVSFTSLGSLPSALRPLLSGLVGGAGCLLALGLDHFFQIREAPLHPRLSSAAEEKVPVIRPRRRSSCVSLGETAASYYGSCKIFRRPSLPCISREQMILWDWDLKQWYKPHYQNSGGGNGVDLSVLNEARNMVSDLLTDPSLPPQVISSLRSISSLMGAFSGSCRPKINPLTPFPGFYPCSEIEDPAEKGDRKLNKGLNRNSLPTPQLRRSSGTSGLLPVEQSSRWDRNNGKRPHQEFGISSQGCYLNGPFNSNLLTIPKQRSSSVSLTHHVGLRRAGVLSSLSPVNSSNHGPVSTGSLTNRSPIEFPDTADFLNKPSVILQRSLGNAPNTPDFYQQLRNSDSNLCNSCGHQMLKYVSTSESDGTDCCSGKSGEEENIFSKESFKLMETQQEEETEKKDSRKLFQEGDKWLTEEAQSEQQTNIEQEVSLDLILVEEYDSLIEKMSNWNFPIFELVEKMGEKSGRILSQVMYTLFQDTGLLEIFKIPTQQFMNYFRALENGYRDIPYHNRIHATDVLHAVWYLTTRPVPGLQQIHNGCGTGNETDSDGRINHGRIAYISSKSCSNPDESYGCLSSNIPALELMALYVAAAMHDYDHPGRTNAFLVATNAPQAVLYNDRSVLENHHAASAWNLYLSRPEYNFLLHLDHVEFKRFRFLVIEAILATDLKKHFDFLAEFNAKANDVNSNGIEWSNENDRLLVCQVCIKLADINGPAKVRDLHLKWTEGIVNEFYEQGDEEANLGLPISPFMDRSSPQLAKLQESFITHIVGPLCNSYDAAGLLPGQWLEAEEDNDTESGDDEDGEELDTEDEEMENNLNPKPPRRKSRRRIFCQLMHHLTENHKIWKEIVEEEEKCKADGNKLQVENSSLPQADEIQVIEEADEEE
# Sequence of PDEVIIB (Q9NP56 whole entry): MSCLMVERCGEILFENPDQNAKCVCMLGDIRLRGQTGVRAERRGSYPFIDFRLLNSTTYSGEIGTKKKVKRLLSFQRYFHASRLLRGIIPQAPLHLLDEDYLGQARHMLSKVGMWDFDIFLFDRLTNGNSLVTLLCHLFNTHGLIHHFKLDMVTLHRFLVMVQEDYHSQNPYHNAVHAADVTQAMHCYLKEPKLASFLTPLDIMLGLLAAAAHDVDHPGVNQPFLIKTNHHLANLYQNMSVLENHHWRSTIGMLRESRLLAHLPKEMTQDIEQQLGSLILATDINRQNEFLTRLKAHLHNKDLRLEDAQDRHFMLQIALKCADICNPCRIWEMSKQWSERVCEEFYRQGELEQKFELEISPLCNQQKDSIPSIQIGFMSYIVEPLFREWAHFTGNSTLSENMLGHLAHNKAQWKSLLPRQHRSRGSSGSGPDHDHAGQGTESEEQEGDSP
# Sequence of PDEXIA (Q9HCR9 whole entry): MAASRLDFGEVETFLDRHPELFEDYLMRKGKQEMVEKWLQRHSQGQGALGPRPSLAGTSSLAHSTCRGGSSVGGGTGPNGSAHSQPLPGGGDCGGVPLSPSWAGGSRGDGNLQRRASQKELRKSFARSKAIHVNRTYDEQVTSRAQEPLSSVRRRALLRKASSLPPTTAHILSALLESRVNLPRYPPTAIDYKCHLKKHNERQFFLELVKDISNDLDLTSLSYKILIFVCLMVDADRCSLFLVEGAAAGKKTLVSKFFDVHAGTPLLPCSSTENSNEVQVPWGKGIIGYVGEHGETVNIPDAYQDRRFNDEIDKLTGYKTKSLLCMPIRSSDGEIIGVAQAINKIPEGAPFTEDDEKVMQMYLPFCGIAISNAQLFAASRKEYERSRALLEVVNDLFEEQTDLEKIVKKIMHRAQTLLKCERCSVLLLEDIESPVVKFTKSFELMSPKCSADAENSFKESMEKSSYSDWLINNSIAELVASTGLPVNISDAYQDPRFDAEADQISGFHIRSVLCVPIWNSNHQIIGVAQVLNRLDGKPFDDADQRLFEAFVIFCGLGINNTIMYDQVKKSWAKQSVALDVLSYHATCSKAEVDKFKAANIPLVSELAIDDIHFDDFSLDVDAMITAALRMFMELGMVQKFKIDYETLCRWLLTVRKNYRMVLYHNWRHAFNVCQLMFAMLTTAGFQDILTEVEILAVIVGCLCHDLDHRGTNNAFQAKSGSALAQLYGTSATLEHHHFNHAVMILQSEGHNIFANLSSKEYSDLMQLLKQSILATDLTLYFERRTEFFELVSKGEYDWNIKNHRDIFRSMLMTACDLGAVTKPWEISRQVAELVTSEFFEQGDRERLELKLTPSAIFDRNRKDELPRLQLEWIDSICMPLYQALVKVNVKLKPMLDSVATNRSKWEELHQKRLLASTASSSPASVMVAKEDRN
# Sequence of PDEIXA (O76083 whole entry): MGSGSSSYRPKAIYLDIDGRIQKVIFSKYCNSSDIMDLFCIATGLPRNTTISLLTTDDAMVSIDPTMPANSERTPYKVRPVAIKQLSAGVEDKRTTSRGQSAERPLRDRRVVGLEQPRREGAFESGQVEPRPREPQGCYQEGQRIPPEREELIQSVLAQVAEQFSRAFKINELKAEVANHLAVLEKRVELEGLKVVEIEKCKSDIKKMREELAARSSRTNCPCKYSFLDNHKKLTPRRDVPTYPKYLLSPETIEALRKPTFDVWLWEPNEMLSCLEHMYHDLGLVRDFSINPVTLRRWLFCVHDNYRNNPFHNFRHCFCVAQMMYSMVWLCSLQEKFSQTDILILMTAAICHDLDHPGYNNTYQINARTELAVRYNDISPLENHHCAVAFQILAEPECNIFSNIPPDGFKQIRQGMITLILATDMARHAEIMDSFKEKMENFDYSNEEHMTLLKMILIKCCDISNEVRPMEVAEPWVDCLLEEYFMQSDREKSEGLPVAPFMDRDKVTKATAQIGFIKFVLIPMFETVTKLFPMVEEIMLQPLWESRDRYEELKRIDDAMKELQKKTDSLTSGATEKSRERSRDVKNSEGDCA
# Sequence of PDEIIA (O00408 whole entry): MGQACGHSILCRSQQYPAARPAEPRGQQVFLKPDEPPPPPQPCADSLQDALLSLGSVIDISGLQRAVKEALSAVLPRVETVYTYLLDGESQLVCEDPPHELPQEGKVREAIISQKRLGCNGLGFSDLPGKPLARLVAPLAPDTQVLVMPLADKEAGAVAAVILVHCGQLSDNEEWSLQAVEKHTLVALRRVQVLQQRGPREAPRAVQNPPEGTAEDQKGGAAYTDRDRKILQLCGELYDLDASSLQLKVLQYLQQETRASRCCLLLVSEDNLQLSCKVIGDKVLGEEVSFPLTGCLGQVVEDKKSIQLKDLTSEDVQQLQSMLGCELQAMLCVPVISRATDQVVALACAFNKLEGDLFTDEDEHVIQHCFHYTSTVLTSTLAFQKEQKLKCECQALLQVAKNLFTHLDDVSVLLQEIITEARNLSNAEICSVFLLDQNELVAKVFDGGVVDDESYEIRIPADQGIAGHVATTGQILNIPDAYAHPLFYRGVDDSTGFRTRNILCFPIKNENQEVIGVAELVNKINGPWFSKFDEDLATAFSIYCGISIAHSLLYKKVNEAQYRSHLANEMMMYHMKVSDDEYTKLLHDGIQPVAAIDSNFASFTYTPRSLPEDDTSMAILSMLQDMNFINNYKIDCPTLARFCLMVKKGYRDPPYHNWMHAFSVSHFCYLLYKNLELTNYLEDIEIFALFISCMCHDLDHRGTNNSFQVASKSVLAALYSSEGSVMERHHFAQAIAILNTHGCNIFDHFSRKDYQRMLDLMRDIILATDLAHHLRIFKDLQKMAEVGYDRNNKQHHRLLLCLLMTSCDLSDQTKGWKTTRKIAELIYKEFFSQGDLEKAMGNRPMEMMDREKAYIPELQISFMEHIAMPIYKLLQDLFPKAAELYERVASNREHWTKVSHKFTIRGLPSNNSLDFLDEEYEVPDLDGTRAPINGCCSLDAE
# T1 sequence (O00408 whole entry): as above
# Sequence of PDEIB (Q01064 whole entry): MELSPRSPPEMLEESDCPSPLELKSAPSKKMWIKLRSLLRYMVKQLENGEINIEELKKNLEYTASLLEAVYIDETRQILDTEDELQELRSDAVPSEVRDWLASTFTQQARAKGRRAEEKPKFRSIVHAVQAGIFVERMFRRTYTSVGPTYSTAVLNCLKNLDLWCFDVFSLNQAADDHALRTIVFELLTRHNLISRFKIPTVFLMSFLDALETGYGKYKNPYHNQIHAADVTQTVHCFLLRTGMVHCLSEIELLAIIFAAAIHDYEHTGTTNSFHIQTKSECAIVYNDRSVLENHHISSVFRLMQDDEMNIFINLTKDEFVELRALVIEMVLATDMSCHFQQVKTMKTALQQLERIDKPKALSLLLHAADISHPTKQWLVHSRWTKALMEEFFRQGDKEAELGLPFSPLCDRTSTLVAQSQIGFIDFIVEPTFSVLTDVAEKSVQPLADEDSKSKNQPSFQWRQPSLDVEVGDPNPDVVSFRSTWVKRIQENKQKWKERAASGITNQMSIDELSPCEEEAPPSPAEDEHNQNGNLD
smiles,measurement,setting,value
CCCn1c(=O)c(C)cn2nc(N)nc12 [ICI63197],pIC50,[1]; [8],7.46
same,pIC50,[2],7.46
COc1ccc(C2CNC(=O)C2)cc1OC1CCCC1 (stereo not drawn) [Rolipram],inhibition at 10 µM,"[3]; 10 uM, 12-60 hours, without androgens, p<0.01, read-out: level of average inhibition of cell proliferation",~50%
same,pIC50,"[3]; real-time growth, concluded from 50% inhibition at 10 uM, read-out: IC50 of cell proliferation inhibition",~5.00
same,inhibition at 10 µM,"[4]; 10 μM, 48 hours, without androgens, p<0.01, read-out: level of average inhibition of cell proliferation",~50%
same,pIC50,"[4]; end-point growth, concluded from 50% inhibition at 10 μM, read-out: IC50 of cell proliferation inhibition",~5.00
same,pIC50,[1]; [8],6.00
same,pIC50,"[1]; in vitro, read-out: in vitro IC50 for 50% inhibition of PDE4",~5.70
same,pIC50,"[1]; read-out: IC50, PDE4",5.70
CCOC(=O)c1c(C)nn(-c2cccc([N+](=O)[O-])c2)c1C [Phosphodiesterase 4 Inhibitor],pIC50,[1]; [8],7.48
same,pIC50,PDEIB,< 4.52
same,pIC50,PDEIIA,< 4.52
same,pIC50,PDEIIIB,< 4.52
same,pIC50,PDEVA,< 4.52
same,pIC50,PDEVIIB,< 4.52
same,pIC50,PDEVIIIA,< 4.52
same,pIC50,PDEIXA,< 4.52
same,pIC50,PDEXIA,< 4.52
same,pIC50,PDEXA,5.16
COc1ccc(C2CNC(=O)NC2)cc1O[C@H]1C[C@@H]2CC[C@H]1C2 [CP80633],pIC50,[1]; [8],5.72
same,pIC50,human lung PDE4,5.72
same,PDE4 isozyme selectivity,human lung PDE4,no significant PDE4 isozyme selectivity
same,pIC50,lung PDE1,< 4.00
same,pIC50,lung PDE2,< 4.00
same,pIC50,heart PDE3,< 4.00
same,pIC50,platelet PDE-V,< 4.00
same,hydrolysis of cAMP in blood cells,[5],inhibits hydrolysis of cAMP
same,anti-inflammatory and bronchodilatory effects,[6],anti-inflammatory and bronchodilatory effects in vivo
CCc1ccc2c(-c3cccc(Cl)c3)nc(=O)n(CC)c2n1 [YM976],pIC50,"[1]; read-out: IC50, PDE4",8.66
same,emetogenic activity,[7],low emetogenic activity
